Measurements as given in ChEMBL document CHEMBL3243920, “Quantitative structure-activity relationships of chymotrypsin. On the predictive value of correlation equations” (J Med Chem, 1977).

Assay: Inhibition of chymotrypsin (unknown origin)
Details: Homo sapiens

Row | Compound | log1/Ki
1 | O=C(CCl)NCc1ccccc1 | 2.31
2 | CC(=O)c1ccc(NC=O)cc1 | 1.72
3 | NC(=O)CCCc1ccccc1 | 1.92
4 | NC(=O)Cc1ccccc1 | 1.82
5 | COc1cccc(NC=O)c1 | 2.17
6 | CCC(=O)NCc1ccccc1 | 2.2
7 | CC(=O)NCc1ccccc1 | 2.12
8 | COc1ccc(NC=O)cc1 | 2.06
9 | Cc1ccc(CC(NC(=O)C(F)(F)F)C(=O)O)cc1 (stereo not drawn) | 2.82
10 | CC(=O)Nc1ccccc1 | 1.89
11 | O=C(O)C(Cc1ccccc1)NC(=O)C(F)(F)F (stereo not drawn) | 2.1
12 | NC(=O)CCc1c[nH]c2ccccc12 | 2.64
13 | O=CNc1ccc(Cl)cc1 | 3.4
14 | O=C(O)C(Cc1ccc(F)cc1)NC(=O)C(F)(F)F (stereo not drawn) | 2.89
15 | O=C(O)C(Cc1ccc(F)cc1F)NC(=O)C(F)(F)F (stereo not drawn) | 2.35
16 | Cc1ccc(NC=O)cc1 | 2.52
17 | CCC(=O)Nc1ccccc1 | 2.18

Row | Compound | log1/Ki
18 | CC(=O)NCCc1c[nH]c2ccccc12 | 2.74
19 | COC(=O)c1nc2ccccc2[nH]1 | 2.25
20 | O=C(CCl)NCCc1ccccc1 | 2
21 | O=C(O)C(Cc1ccc(Br)cc1)NC(=O)C(F)(F)F (stereo not drawn) | 3
22 | Cc1cccc(CC(NC(=O)C(F)(F)F)C(=O)O)c1 (stereo not drawn) | 2.35
23 | O=C(O)C(Cc1cccc(F)c1)NC(=O)C(F)(F)F (stereo not drawn) | 2.57
24 | O=C(NCCc1c[nH]c2ccccc12)C(F)(F)F | 2.92
25 | NC(=O)c1ccccc1 | 2
26 | O=CNc1ccc([N+](=O)[O-])cc1 | 2.42
27 | N#Cc1ccc(NC=O)cc1 | 1.9
28 | O=CNc1ccccc1 | 2.4
29 | NC(=O)CCc1ccccc1 | 2.15
30 | CC(=O)NCCc1ccccc1 | 1.94
31 | NC(=O)CNC(=O)c1ccccc1 | 1.9
32 | NC(=O)c1ccnc2ccccc12 | 2.08
33 | O=CNc1cccc(Cl)c1 | 3.1
